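Tested at 5 concentrations; 48 h exposure; 96-well plates; endpoints linearly interpolated, else capped at highest concentration. TGI: concentration producing complete growth inhibition.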
Tests used:
Test in all cases: NCI-60 cell line screen, 48 h
[1] = tested on: UACC-62 melanoma
[2] = tested on: HCT-15 colon
[3] = tested on: SW-620 colon
[4] = tested on: K-562 leukemia
[5] = tested on: M14 melanoma
[6] = tested on: BT-549 breast
[7] = tested on: HT29 colon
[8] = tested on: EKVX NSCLC
[9] = tested on: DU-145 prostate
[10] = tested on: SNB-19 CNS
[11] = tested on: U251 CNS
[12] = tested on: A549 NSCLC
[13] = tested on: SNB-75 CNS
[14] = tested on: OVCAR-5 ovarian
[15] = tested on: SR leukemia
[16] = tested on: SF-539 CNS

| Structure (SMILES) | TGI [1] [µM] | TGI [2] [µM] | TGI [3] [µM] | TGI [4] [µM] | TGI [5] [µM] | TGI [6] [µM] | TGI [7] [µM] | TGI [8] [µM] | TGI [9] [µM] | TGI [10] [µM] | TGI [11] [µM] | TGI [12] [µM] | TGI [13] [µM] | TGI [14] [µM] | TGI [15] [µM] | TGI [16] [µM] |
| --- | --- | --- | --- | --- | --- | --- | --- | --- | --- | --- | --- | --- | --- | --- | --- | --- |
| C/C(Cc1ccc2c(c1)OCO2)=N\NC(=O)C(C)Sc1nnc(SC(C)C(=O)N/N=C(\C)Cc2ccc3c(c2)OCO3)s1 (stereo unspecified) | > 100 | > 100 | > 100 | > 100 | > 100 | > 100 | > 100 | > 100 | > 100 | > 100 | > 100 | > 100 | > 100 | > 100 |  |  |
| O=C(C/C=C/c1ccccc1)c1ccccc1 | 26.4 | 37 | > 100 |  | 32.2 |  | 65.5 | > 100 | 31 |  | 29.9 | 26 | 69.2 | > 100 | 49.9 | 56.6 |
| CCCNC(=O)N(C)C(=O)N1N=C(c2ccccc2)C1c1ccccc1 (stereo unspecified) | > 100 | > 100 | > 100 | > 100 | > 100 |  |  | > 100 | > 100 | > 100 | > 100 | > 100 | > 100 |  |  | > 100 |
| CCOC(=O)C1(Br)S(=O)(=O)OCCOS1(=O)=O | > 100 | > 100 | > 100 | > 100 | > 100 |  | > 100 | > 100 |  | > 100 | > 100 | > 100 | > 100 | > 100 | > 100 | > 100 |
| O=c1c2c(c1=O)-c1ccccc1CN2 | > 100 | > 100 | > 100 | > 100 | > 100 |  | > 100 | > 100 |  | > 100 | > 100 | > 100 | > 100 | > 100 |  | > 100 |
| Cn1c(N=P(c2ccccc2)(c2ccccc2)c2ccccc2)c([N+](=O)[O-])c(=O)n(C)c1=O | > 100 | > 100 | > 100 | > 100 | > 100 | > 100 | > 100 | > 100 |  | > 100 | > 100 | > 100 | 91.8 | > 100 |  | > 100 |
| CCCCOC(=O)c1cc(C(=CCC[C@H]2CC[C@@]3(C)[C@@H](CC[C@@H]4[C@@H]3CC[C@]3(C)[C@@H](C(C)CCCC(C)C)CC[C@@H]43)C2)c2cc(Cl)c(O)c(C(=O)OCCCC)c2)cc(Cl)c1O (stereo partly specified) | > 50 | > 50 | > 50 | > 5 |  | > 50 | > 50 | > 50 | > 50 | > 50 | > 50 |  | > 50 |  |  |  |
| COc1cccc(NC(=O)C(=O)C2C=CCS2(=O)=O)c1 (stereo unspecified) | > 100 | > 100 | > 100 | > 100 | > 100 |  | > 100 | > 100 |  | > 100 | > 100 | > 100 | > 100 | > 100 | > 100 | > 100 |
| CCCNC(=O)N1CC(CN2CCN(c3ccccc3)CC2)O/C1=N/C(=O)Nc1ccccc1 (stereo unspecified) | > 100 |  | > 100 | > 100 | > 100 | > 100 | > 100 | > 100 | > 100 | > 100 | > 100 | > 100 | > 100 | > 100 |  |  |
| O=P(O)(CN1CCN(CP(=O)(O)c2ccccc2)CCN(CP(=O)(O)c2ccccc2)CC1)c1ccccc1 |  |  | > 100 | > 100 |  | > 100 | > 100 | > 100 | > 100 | > 100 | > 100 | > 100 | > 100 | > 100 |  | > 100 |
| C=CC1(C)OC2(CCN(C(=O)OCC)CC2)OC1C (stereo unspecified) | > 100 | > 100 | > 100 | > 100 | > 100 |  | > 100 | > 100 | > 100 | > 100 | > 100 | > 100 | > 100 | > 100 | > 100 | > 100 |
| S=C(N1CCN(c2ccccc2)CC1)N1CCN(c2ccccc2)CC1 | > 100 | > 100 | > 100 | > 100 | > 100 | > 100 | > 100 | > 100 | > 100 | > 100 | > 100 | > 100 | > 100 | > 100 |  |  |
| CC1=CCC2CC1NC(=O)CCOCCC(=O)NC2(C)C (stereo unspecified) | > 100 | > 100 | > 100 | > 100 | > 100 |  | > 100 |  | > 100 | > 100 | > 100 | > 100 |  | > 100 | > 100 | > 100 |
| C=C1Cc2cc(OC)c(OC)c(OC)c2-c2ccc(SC)c(=O)cc21 |  | 1.17 | 4 | > 34.8 |  |  | < 0.01 | 18.8 |  | 5.3 |  | 19.5 | 15.1 | 12.6 | > 100 | < 0.01 |
| CCCCC(=O)Nc1ccc2c(C)cc(-c3ccc(-c4cc(-c5ccc(C)cc5)cc(-c5ccc(-c6cc(C)c7ccc(NC(=O)CCCC)nc7n6)cc5)n4)cc3)nc2n1 | > 100 | > 100 |  | > 100 | > 100 | > 100 |  | > 100 | > 100 | > 100 | > 100 | > 100 | > 100 | > 100 |  |  |
| N#Cc1ccc(C2NN=CC23C(=O)c2ccccc2OC3c2ccccc2)cc1 (stereo unspecified) | > 100 | > 100 | > 100 | > 100 | > 100 |  | > 100 | 84.8 | > 100 | > 100 | 55.7 | > 100 |  | > 100 | > 100 | > 100 |

| Structure (SMILES) | TGI [1] [µM] | TGI [2] [µM] | TGI [3] [µM] | TGI [4] [µM] | TGI [5] [µM] | TGI [6] [µM] | TGI [7] [µM] | TGI [8] [µM] | TGI [9] [µM] | TGI [10] [µM] | TGI [11] [µM] | TGI [12] [µM] | TGI [13] [µM] | TGI [14] [µM] | TGI [15] [µM] | TGI [16] [µM] |
| --- | --- | --- | --- | --- | --- | --- | --- | --- | --- | --- | --- | --- | --- | --- | --- | --- |
| COC(=O)C1(C)NCCc2c1[nH]c1ccccc21 (stereo unspecified) | > 100 | > 100 | > 100 | > 100 | > 100 |  | > 100 | > 100 |  | > 100 | > 100 | > 100 | > 100 | > 100 | > 100 | > 100 |
| COC1/C=C/C(C)C(C(C)C(OC)C(C)CCC(=O)C(C)C(CC(=O)O)OC)OC(=O)/C=C/C=C(\C)CC(OC)CC2=CC(=O)O[C@H](C2)C(C)C(OC)CC(OC)/C=C/C(C)C(OC)C1 (stereo partly specified) | 3.05 | > 4.35 | > 4.35 | > 4.35 | > 4.35 |  | > 4.35 | > 4.35 | > 4.35 | > 4.35 | > 4.35 | > 4.35 | 0.0426 | > 4.35 | > 4.35 |  |
| CCCN(CCC)C1=Nc2ccccc2-n2cnnc2C1 | > 100 | > 100 | > 100 | > 100 | > 100 |  | > 100 | > 100 |  | > 100 | > 100 | > 100 |  | > 100 | > 100 | > 100 |
| NC(Cc1ccc(B(O)O)cc1)C(=O)NC(CO)CO (stereo unspecified) | > 100 | > 100 | > 100 | > 100 | > 100 | > 100 | > 100 | > 100 |  | > 100 | > 100 | > 100 | > 100 | > 100 | > 100 | > 100 |
| CCOC(=O)c1cc(C2CCN(Cc3ccccc3)C2=S)c(C(=O)C=[N+]=[N-])[nH]1 (stereo unspecified) | 50.7 | 53.8 | > 100 | > 100 | 48.7 | 67.6 | > 100 | 89.6 | > 100 | > 100 | > 100 | > 100 | 91.6 | > 100 |  |  |
| O=c1ccnc2ccc3n[nH][nH]c3c12 | > 100 | > 100 | > 100 | > 100 | > 100 |  | > 100 | > 100 |  | > 100 | > 100 | > 100 | > 100 | > 100 |  | > 100 |
| O=C1CCCc2ccc3c(c21)CC1(Cc2ccccc2C1)C3 | > 100 | > 100 |  | 30 | > 100 |  | 45 | > 100 |  |  | > 100 | > 100 | 9.64 | > 100 |  | > 100 |
| O=c1c2ccccc2[nH]c2c(Cl)cc(Cl)c(N3CCCCC3)c12 | > 10 | > 100 | 84.8 | > 10 | 88.9 | > 100 | 32.6 | > 100 |  | 77.9 | 62.4 | > 100 | > 100 | > 100 | > 100 | 46.6 |
| CC(O)[C@@]1(c2ccccc2)CC2(CCN(C)CC2)O[C@H]1C (stereo partly specified) | > 100 | > 100 | > 100 | > 100 | > 100 |  | > 100 | > 100 | > 100 | > 100 | > 100 | > 100 | > 100 | > 100 | > 100 | > 100 |
| NC(=O)C(=CNC(=S)Nc1cccc(C(F)(F)F)c1)C(N)=O | > 100 |  | > 100 | > 100 | > 100 |  | > 100 |  | > 100 | > 100 | > 100 | > 100 | > 100 | > 100 | > 100 | > 100 |
| Cc1csc(NNC(=O)Nc2ccccc2)n1 | > 100 | > 100 | > 100 | > 100 | > 100 |  | > 100 | > 100 | > 100 | > 100 | > 100 | > 100 | > 100 | > 100 | > 100 | > 100 |
| CN(C(=O)c1ccco1)C(=S)N1CCN(c2ccccn2)CC1 | > 100 | > 100 | > 100 | > 100 | > 100 |  | > 100 |  |  | > 100 | > 100 | > 100 | > 100 | > 100 |  | > 100 |
| c1ccc([P+](CCCCCC[P+](c2ccccc2)(c2ccccc2)c2ccccc2)(c2ccccc2)c2ccccc2)cc1 | > 100 | > 100 | > 100 | > 100 | > 100 |  | > 100 | > 100 | > 100 | > 100 | > 100 | > 100 | > 100 | > 100 | > 100 | 39 |
| COC1=CC(=O)C2=C(C[C@@]3(C)C(=C2)C(CO)=CC[C@H]3O)C1=O | 32.4 | 88.5 | 60.6 | 24 | 44.2 | 34 | > 100 | 38.8 | > 100 | > 100 | 41.6 | > 100 |  | 54.5 |  | 34.7 |
| O=c1c2c(F)c(F)c(F)c(F)c2sc2nccn12 | 31.8 | 29 | 33 | 29.4 | 32 |  | 34.7 | 50.2 | 41.9 | 35.9 | 29.2 | 36.7 | 50.4 | 36.3 | 18.7 | 31.4 |
| COC(=O)C1C=CCON2CCc3c(n(S(=O)(=O)c4ccccc4)c4ccccc34)C12 (stereo unspecified) | > 62.5 | > 72.9 | > 34.3 | > 60.9 | > 100 |  | > 100 | > 84.8 |  | > 77.7 | > 42.1 | > 100 | > 100 | > 100 | > 100 | > 16.2 |

From PubChem BioAssay (NCI)
